Laboratory results from PubChem BioAssay (NCI).
“And” between values parts separate entries of the source, which are not always exact repeats. Identical values can stand only once.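 Growth conditions: 96-well plates. Treatment: test compound, 48 hours, 5 concentrations. Analysis: linear interpolation between bracketing concentrations; unreached endpoints set to highest concentration. GI50 is the concentration that inhibits growth by half. TGI: concentration producing complete growth inhibition.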

Key:
Experiment in all cases: growth of human tumour cells (NCI), 48 h
[1] = tested on: SK-MEL-28 melanoma
[2] = tested on: IGROV1 ovarian
[3] = tested on: HCT-116 colon
[4] = tested on: OVCAR-5 ovarian
[5] = tested on: SNB-75 CNS
[6] = tested on: OVCAR-3 ovarian
[7] = tested on: SK-MEL-2 melanoma
[8] = tested on: HOP-62 NSCLC
[9] = tested on: CAKI-1 renal
[10] = tested on: UACC-257 melanoma

Compound | GI50 [1] [µM] | TGI [1] | GI50 [2] | TGI [2] | GI50 [3] | TGI [3] | GI50 [4] | TGI [4] | GI50 [5] [µM] | TGI [5] [µM] | GI50 [6] | TGI [6] | GI50 [7] | TGI [7] | GI50 [8] [µM] | TGI [8] [µM] | GI50 [9] [µM] | TGI [9] | TGI [10] | GI50 [10]
COc1ccc(-n2cc(-c3ccc(OC)c(OC)c3)[nH]c2=S)cc1Cl | > 100 | > 100 µM | > 100 µM | > 100 µM | > 100 µM | > 100 µM | > 100 µM | > 100 µM | 4.75 | 21 | > 100 µM | > 100 µM | > 100 µM | > 100 µM | 30.2 | > 100 | > 100 | > 100 µM |  | 
O=C1c2ccccc2-c2c1c1cc3c(cc1c(=O)n2CCCCl)OCO3 | 19.2 | > 100 µM |  |  | 17.7 µM | 90.1 µM |  |  | 0.58 | > 100 | 11.4 µM | 32 µM | > 100 µM | > 100 µM | 12.3 | 28.6 | 20.4 | 82.4 µM |  | 
COC(=O)c1c(OC)cccc1C(=O)O |  |  |  | > 100 µM |  | > 100 µM |  | > 100 µM |  | > 100 |  | > 100 µM |  | > 100 µM |  | > 100 |  | > 100 µM | > 100 µM | 
CCN1CCN(c2nc(NCCNc3ccnc4cc(Cl)ccc34)c3ccccc3n2)CC1 | 2.04 | 3.81 µM | 1.62 µM | 4.69 µM | 1.1 µM | 6.13 µM | 2.56 µM | 9.14 µM | 1.94 | 5.85 | 1.87 µM | 4.2 µM | 2.07 µM | 4.33 µM | 1.95 | 6.43 |  |  | 4.8 µM | 2.62 µM
O=[N+]([O-])c1ccc(NSc2ccccc2)cc1 |  | > 100 µM |  | 27.7 µM |  | > 100 µM |  | > 100 µM |  |  |  | > 100 µM |  | > 100 µM |  | > 100 |  |  | > 100 µM | 
O=c1[nH]c(=O)n(C2CC(O)C(CO)O2)cc1C#Cc1c(F)c(F)c(F)c(F)c1F (stereo unspecified) |  | > 100 µM |  |  |  | > 100 µM |  | > 100 µM |  | > 100 |  | > 100 µM |  | > 100 µM |  | > 100 |  | > 100 µM | > 100 µM | 
O=C(O)CCCc1ccc(N(CCCl)CCCl)cc1 | 21.5 | 42.1 µM and 267 µM | 30.5 µM and 158 µM | 65.3 µM and 352 µM and 321 µM | 23 µM and 144 µM | 63 µM and 389 µM and 328 µM | 20.6 µM and 173 µM | 45.4 µM and 274 µM and 374 µM |  |  | 18.1 µM and 133 µM | 56.7 µM and 322 µM and 209 µM | 31.8 µM and 270 µM | 52 µM and 314 µM and 344 µM |  |  | 5.86 | 28.1 µM and 146 µM and 247 µM | 60.7 µM and 298 µM and 306 µM | 26 µM and 148 µM
ClCc1ccccc1CSc1ncnc2nc[nH]c12 | > 60 | > 60 µM | > 60 µM | > 60 µM | > 60 µM | > 60 µM | > 60 µM | > 60 µM | > 60 | > 60 | > 60 µM | > 60 µM |  |  | > 60 | > 60 | > 60 | > 60 µM | > 60 µM | > 60 µM
O=C1CC[C@H]2CNC(=O)C[C@H]2C1 |  | > 100 µM |  | > 100 µM |  | > 100 µM |  |  |  | > 100 |  | > 100 µM |  | > 100 µM |  | > 100 |  | > 100 µM | > 100 µM | 
Clc1ccc(Cc2nc3cc4ccccc4cc3[nH]2)cc1 |  |  | 26 µM | > 100 µM | 5.06 µM | 20.6 µM | 26.3 µM | > 100 µM | > 100 | > 100 | 14.4 µM | > 100 µM | > 100 µM | > 100 µM | 10.2 | 30.8 | 6.55 | 69.9 µM | > 100 µM | > 100 µM
COc1cccc(-c2nc(-c3cnccn3)n(Cc3ccccc3)n2)c1 |  | > 100 µM |  | > 100 µM |  | > 100 µM |  | > 100 µM |  | > 100 |  | > 100 µM |  |  |  | > 100 |  |  | > 100 µM | 
CCOC(=O)CCCO |  | > 100 µM |  | > 100 µM |  |  |  | > 100 µM |  | > 100 |  | > 100 µM |  | > 100 µM |  |  |  |  | > 100 µM | 
Cc1cc(C)nc(NS(=O)(=O)c2ccc(NC(=O)c3cccc4c(=O)c5ccccc5[nH]c34)cc2)n1 |  | 36 µM |  | 68.1 µM |  | 30.7 µM |  |  |  | 50 |  | 37.6 µM |  |  |  | 56.7 |  | > 100 µM | 33.9 µM | 
O=C1Oc2cc3c(c4cccc1c24)OCN(c1ccc(Cl)cc1)C3 |  | > 93.6 µM |  | > 100 µM |  | 29.3 µM |  | > 77.3 µM |  | > 100 |  | > 57.4 µM |  |  |  | > 100 |  | > 100 µM | > 100 µM | 
CC(C)(C)C1=NC(S)NC(CCC(=O)Nc2ccccc2[N+](=O)[O-])=C1 (stereo unspecified) |  | > 100 µM |  | > 100 µM |  | > 100 µM |  | > 100 µM |  |  |  | > 100 µM |  | > 100 µM |  | > 100 |  | > 100 µM | > 100 µM | 
Cc1c(C(=O)/C=C/c2cccc3ccccc23)[n+](=O)c2ccccc2n1[O-] |  | 26.6 µM |  | 48.7 µM |  | 18.8 µM |  | 28.5 µM |  | 27.2 |  | 22.7 µM |  |  |  | 29.6 |  | 21.8 µM | 26.7 µM | 

Compound | GI50 [1] [µM] | TGI [1] | GI50 [2] | TGI [2] | GI50 [3] | TGI [3] | GI50 [4] | TGI [4] | GI50 [5] [µM] | TGI [5] [µM] | GI50 [6] | TGI [6] | GI50 [7] | TGI [7] | GI50 [8] [µM] | TGI [8] [µM] | GI50 [9] [µM] | TGI [9] | TGI [10] | GI50 [10]
NC1(CCCCCCCCCCC(=O)O)CNCCNCCNCCNC1 |  | > 100 µM |  | > 100 µM |  | 81.2 µM |  | 45.6 µM |  |  |  | > 100 µM |  | > 100 µM |  | 91.6 |  | > 100 µM | > 100 µM | 
Cc1nc2nnc(C)n2c2c1C(=O)Nc1ccccc1N2 |  | > 100 µM |  | > 100 µM |  | > 100 µM |  |  |  | > 100 |  | > 100 µM |  | > 100 µM |  | > 100 |  |  | > 100 µM | 
OCc1c(-c2cccc3ccccc23)sc(-c2cccc3ccccc23)c1CO |  | 23.3 µM |  | 28 µM |  |  |  | 30.9 µM |  | 30.7 |  | 26.5 µM |  | 28.2 µM |  | 26.3 |  |  | 25.6 µM | 
CC(=O)/C=C/c1cccc(N=S)c1 |  | 44.6 µM |  | > 48.4 µM |  | 2.72 µM |  | > 100 µM |  | > 91.8 |  | 48.4 µM |  |  |  | > 100 |  | > 100 µM | > 67.4 µM | 
CC1=C(CCCOC(=O)NCCCl)C2=C(C)C3(CC3)[C@@](C)(O)C(=O)C2=C1 | 2.63 | 8.03 µM | 1.77 µM | 17.6 µM | 2.96 µM | > 100 µM | 3.13 µM | > 100 µM | 1.75 | 3.84 | 2.95 µM | 9.9 µM | 2.31 µM | 4.96 µM | 2.37 | 7.42 |  |  | > 100 µM | 3.91 µM
CCOc1ccc2nc(NC(=O)/C(CC(=O)CC(C3=C(O)c4ccccc4CC3=O)c3ccccc3)=N\O)sc2c1 (stereo unspecified) |  | > 100 µM |  | > 100 µM |  | > 100 µM |  | > 100 µM |  | > 100 |  | > 100 µM |  | > 100 µM |  |  |  | > 100 µM | > 100 µM | 
C/C(=N\NC(N)=S)c1ccc(C)cc1C |  |  |  | > 100 µM |  | > 100 µM |  | 94.1 µM |  | > 100 |  | > 100 µM |  | > 100 µM |  | > 100 |  | > 100 µM | > 100 µM | 
COc1cc2c(cc1OC)C1C=NC(C(=O)O)(C2)c2ccccc21 (stereo unspecified) |  |  |  | > 100 µM |  | > 100 µM |  | > 100 µM |  | > 100 |  | > 100 µM |  |  |  | > 100 |  | > 100 µM | > 100 µM | 
Cc1cccc2c3ccc4c(c3n(C)c12)C(=O)C=CC4=O |  | > 100 µM |  | > 100 µM |  | > 100 µM |  |  |  | > 100 |  | > 100 µM |  | > 100 µM |  | > 100 |  | > 100 µM | > 100 µM | 
O=C1/C(=C/c2ccccc2)CN(C(=O)Oc2ccc(Cl)cc2)C/C1=C\c1ccccc1 |  | 4.26 µM |  | 10.2 µM |  | 0.593 µM |  | 23.2 µM |  | 12.6 |  | 10.6 µM |  | 16.5 µM |  | 14.7 |  |  | 4.33 µM | 
CCCNC(=O)OCc1c(COC(=O)NCCC)c(-c2ccc(Cl)c(Cl)c2)n2c1CCC2 |  |  |  | 5.54 µM |  | 17.7 µM |  | 20.4 µM |  |  |  | 41.5 µM |  |  |  | 22.3 |  | 8.2 µM | 20.1 µM | 
CCOC(=O)c1c(N)n(-c2ccccc2)c(=S)n(-c2ccccc2)c1=O |  | > 100 µM |  | > 100 µM |  |  |  | > 100 µM |  | > 100 |  | > 100 µM |  | > 100 µM |  |  |  |  | > 100 µM | 
O=C(N/N=C/c1cccc(O)c1O)N/N=C/c1cccc(O)c1O |  | > 100 µM |  | > 100 µM |  | 39.8 µM |  | 59 µM |  | 50.4 |  | 8.8 µM |  | > 100 µM |  |  |  |  | 62.9 µM | 
CCCCCCCCCCCCCCC1OC(=O)c2ccccc21 (stereo unspecified) |  | > 100 µM |  | > 100 µM |  | > 100 µM |  | > 100 µM |  | > 100 |  | > 100 µM |  |  |  | > 100 |  |  | > 100 µM | 
S=C1NCCN1C1=Nc2ccccc2CO1 | > 100 | > 100 µM | 74 µM | > 100 µM | > 100 µM | > 100 µM | > 100 µM | > 100 µM | 22.5 | > 100 | > 100 µM | > 100 µM |  |  | > 100 | > 100 | > 100 | > 100 µM | > 100 µM | > 100 µM
